Experimental data reported in patent publication US20170007615A1, “Antibacterial Compounds” (priority 2014, published 2017).
≈ marks a conversion by molar mass, not a printed value. Marks after values point to notes of the source that are not given here. Positions of bridges follow the written chain, without caps; N, C: chain ends. Non-standard residues stand in square brackets, D forms with d. Residues, ends and D or L forms follow the SMILES beside them. Dab = NCC[C@H](N)C(=O)O

Experiments:
[1] = tested on: A. baumannii (ATCC 19606); assay: microbe, parasite or virus in culture; conditions: Acinetobacter baumannii, ATCC19606, read-out: MIC Compound alone
[2] = tested on: E. coli (ATCC 25922); conditions: for MIC of Compound (μg/ml) in the presence of PMBN (128 μg/ml): Table 1, (b) No effect
[3] = tested on: E. coli (ATCC 25922); assay: microbe, parasite or virus in culture; conditions: Escherichia coli, ATCC25922, read-out: MIC Compound alone, Table 1
[4] = tested on: A. baumannii (ATCC 19606); conditions: for MIC of Compound (μg/ml) in the presence of PMBN (128 μg/ml): Table 4
[5] = tested on: E. faecalis (ATCC 29212); assay: Antibacterial activity (MIC), Gram-positive type strain; assay type: cell-based, Enteroccocus faecalis; conditions: Table 13; for MIC: Enterococcus faecalis, ATCC29212
[6] = tested on: N. gonorrheae (ATCC 49226); assay: Antibacterial activity (MIC), Gram-negative type strain; assay type: cell-based, Neisseria gonorrhoeae; conditions: Table 13; for MIC: Neisseria gonorrhoeae, ATCC49226
[7] = tested on: H. influenzae (ATCC 49247); assay: as above; assay type: cell-based, Haemophilus influenzae; conditions: Table 13; for MIC: Haemophilus influenzae, ATCC49247
[8] = tested on: S. aureus (ATCC 29213); assay: Antibacterial activity (MIC), Gram-positive type strain; assay type: cell-based, Staphylococcus aureus; conditions: Table 13; for MIC: Staphylococcus aureus, ATCC29213
[9] = tested on: E. coli (NDM-1; CTX-M15); assay: Septicaemia infection model, survival; conditions: two doses
[10] = tested on: F. philomiragia (ATCC 25015); conditions: Table 9; (a) No measurable antibacterial activity
[11] = tested on: E. cloaceae (ATCC 13047)
[12] = tested on: P. aeruginosa (ATCC 27853); conditions: ATCC 27853
[13] = tested on: K. pneumonia colistin-resistant strains; assay: microbe, parasite or virus in culture; assay type: cell-based; conditions: K. pneumonia strains raised by selection with 2 or 4 μg/mL of colistin on MH agar
[14] = tested on: A. baumannii colistin-resistant strains; assay: microbe, parasite or virus in culture; assay type: cell-based; conditions: A. baumannii strains raised by selection with 2 or 4 μg/mL of colistin on MH agar
[15] = tested on: E. coli colistin-resistant strains; assay: microbe, parasite or virus in culture; assay type: cell-based; conditions: E. coli strains raised by selection with 2 or 4 μg/mL of colistin on MH agar
[16] = tested on: B. cepacia (ATCC 25416); assay: Antibacterial activity (MIC), alone and with colistin; assay type: cell-based, Burkholderia cepacia; conditions: Table 8; (a) No measurable antibacterial activity

## CCNC(=O)Nc1nc2cc(-c3cnc(C(C)(O)CO)nc3)cc(-c3ncc(C)cn3)c2s1 (stereo not drawn) [Compound A-8, 1-[5-[2-(1,2-Dihydroxy-1-methyl-ethyl)pyrimidin-5-yl]-7-(5-methylpyrimidin-2-yl)-1,3-benzothiazol-2-yl]-3-ethyl-urea]
[1]
  MIC: 2 µg/mL (≈ 4.3 µM)
[2]
  MIC of Compound (μg/ml) in the presence of PMBN (128 μg/ml): 0.06 µg/mL
[3]
  MIC: 4 µg/mL (≈ 8.59 µM)
[4]
  MIC of Compound (μg/ml) in the presence of PMBN (128 μg/ml): 0.25 µg/mL

## CCNC(=O)Nc1nc2cc(-c3cnc(NS(=O)(=O)c4ccccc4C(=O)O)nc3)cc(-c3ccccn3)c2s1 [Compound A-10, 2-[[5-[2-(Ethylcarbamoylamino)-7-(2-pyridyl)-1,3-benzothiazol-5-yl]pyrimidin-2-yl]sulfamoyl]benzoic acid]
[2]
  MIC of Compound (μg/ml) in the presence of PMBN (128 μg/ml): 4 µg/mL
[5]
  MIC: 0.5 µg/mL (≈ 0.869 µM)
[6]
  MIC: 0.25 µg/mL (≈ 0.434 µM)
[7]
  MIC: 4 µg/mL (≈ 6.95 µM)
[8]
  MIC: 2 µg/mL (≈ 3.47 µM)
[3]
  MIC: > 64 µg/mL

## CCNC(=O)Nc1nc2cc(-c3cnc(NS(=O)(=O)N4CCCC4)nc3)cc(-c3ccc(C)cn3)c2s1 [Compound A-11, 1-Ethyl-3-[7-(5-methyl-2-pyridyl)-5-[2-(pyrrolidin-1-ylsulfonylamino)pyrimidin-5-yl]-1,3-benzothiazol-2-yl]urea]
[2]
  MIC of Compound (μg/ml) in the presence of PMBN (128 μg/ml): 0.015 µg/mL
[5]
  MIC: ≤ 0.008 µg/mL
[6]
  MIC: 0.015 µg/mL (≈ 0.0278 µM)
[7]
  MIC: 0.06 µg/mL (≈ 0.111 µM)
[8]
  MIC: 0.004 µg/mL (≈ 0.00743 µM)
[3]
  MIC: 2 µg/mL (≈ 3.71 µM)

## CCCS(=O)(=O)Nc1ncc(-c2cc(-c3ccc(C)cn3)c3sc(NC(=O)NCC)nc3c2)cn1 [Compound A-12, 1-Ethyl-3-[7-(5-methyl-2-pyridyl)-5-[2-(propylsulfonylamino)pyrimidin-5-yl]-1,3-benzothiazol-2-yl]urea]
[2]
  MIC of Compound (μg/ml) in the presence of PMBN (128 μg/ml): 0.008 µg/mL
[5]
  MIC: ≤ 0.008 µg/mL
[6]
  MIC: ≤ 0.008 µg/mL
[7]
  MIC: 0.015 µg/mL (≈ 0.0293 µM)
[8]
  MIC: ≤ 0.002 µg/mL
[3]
  MIC: 2 µg/mL (≈ 3.91 µM)

## CCNC(=O)Nc1nc2cc(-c3cnc(NS(=O)(=O)C(C)(C)CO)nc3)cc(-c3ccc(C)cn3)c2s1 [Compound A-14, 1-Ethyl-3-[5-[2-[(2-hydroxy-1,1-dimethyl-ethyl)sulfonylamino]pyrimidin-5-yl]-7-(5-methyl-2-pyridyl)-1,3-benzothiazol-2-yl]urea]
[2]
  MIC of Compound (μg/ml) in the presence of PMBN (128 μg/ml): 0.03 µg/mL
[5]
  MIC: ≤ 0.008 µg/mL
[6]
  MIC: 0.015 µg/mL (≈ 0.0277 µM)
[7]
  MIC: 0.015 µg/mL (≈ 0.0277 µM)
[8]
  MIC: 0.03 µg/mL (≈ 0.0554 µM)
[3]
  MIC: 4 µg/mL (≈ 7.38 µM)

## CCNC(=O)Nc1nc2cc(-c3cnc(NS(=O)(=O)N(C)CCO)nc3)cc(-c3ccc(C)cn3)c2s1 [Compound A-15, 1-Ethyl-3-[5-[2-[[2-hydroxyethyl(methyl)sulfamoyl]amino]pyrimidin-5-yl]-7-(5-methyl-2-pyridyl)-1,3-benzothiazol-2-yl]urea]
[2]
  MIC of Compound (μg/ml) in the presence of PMBN (128 μg/ml): 0.03 µg/mL
[5]
  MIC: 0.015 µg/mL (≈ 0.0276 µM)
[6]
  MIC: ≤ 0.008 µg/mL
[7]
  MIC: 0.03 µg/mL (≈ 0.0553 µM)
[8]
  MIC: 0.12 µg/mL (≈ 0.221 µM)
[3]
  MIC: 4 µg/mL (≈ 7.37 µM)

## CCNC(=O)Nc1nc2cc(-c3cnc(NS(=O)(=O)C4CCCC4)nc3)cc(-c3ccc(C)cn3)c2s1 [Compound A-21, 1-[5-[2-(cyclopentylsulfonylamino)pyrimidin-5-yl]-7-(5-methyl-2-pyridyl)-1,3-benzothiazol-2-yl]-3-ethyl-urea]
[1]
  MIC: 1 µg/mL (≈ 1.86 µM)
[5]
  MIC: ≤ 0.008 µg/mL
[6]
  MIC: ≤ 0.008 µg/mL
[7]
  MIC: 0.03 µg/mL (≈ 0.0558 µM)
[8]
  MIC: ≤ 0.002 µg/mL
[4]
  MIC of Compound (μg/ml) in the presence of PMBN (128 μg/ml): 0.03 µg/mL

## CCNC(=O)Nc1nc2cc(-c3cnc(NS(=O)(=O)N4CC[C@@H](N(C)C)C4)nc3)cc(-c3ccc(C)cn3)c2s1 [Compound A-57, (R)-3-(dimethylamino)-N-(5-(2-(3-ethylureido)-7-(5-methylpyridin-2-yl)benzo[d]thiazol-5-yl)pyrimidin-2-yl)pyrrolidine-1-sulfonamide]
[5]
  MIC: 0.03 µg/mL (≈ 0.0516 µM)
[6]
  MIC: 0.12 µg/mL (≈ 0.206 µM)
[7]
  MIC: 0.5 µg/mL (≈ 0.86 µM)
[8]
  MIC: 0.25 µg/mL (≈ 0.43 µM)

## CCNC(=O)Nc1nc2cc(-c3cnc(NS(=O)(=O)C4CCN(C(C)=O)C4)nc3)cc(-c3ccc(C)cn3)c2s1 (stereo not drawn) [Compound A-58, 1-acetyl-N-(5-(2-(3-ethylureido)-7-(5-methylpyridin-2-yl)benzo[d]thiazol-5-yl)pyrimidin-2-yl)pyrrolidine-3-sulfonamide]
[5]
  MIC: 0.25 µg/mL (≈ 0.431 µM)
[6]
  MIC: 0.03 µg/mL (≈ 0.0517 µM)
[7]
  MIC: 1 µg/mL (≈ 1.72 µM)
[8]
  MIC: 2 µg/mL (≈ 3.44 µM)

## CCNC(=O)Nc1nc2cc(-c3cnc(NS(=O)(=O)N4CC[C@@H](O)C4)nc3)cc(-c3ccc(C)cn3)c2s1 [Compound A-59, (R)—N-(5-(2-(3-ethylureido)-7-(5-methylpyridin-2-yl)benzo[d]thiazol-5-yl)pyrimidin-2-yl)-3-hydroxypyrrolidine-1-sulfonamide]
[5]
  MIC: 0.015 µg/mL (≈ 0.027 µM)
[6]
  MIC: 0.015 µg/mL (≈ 0.027 µM)
[7]
  MIC: 0.03 µg/mL (≈ 0.0541 µM)
[8]
  MIC: 0.12 µg/mL (≈ 0.216 µM)

## CCNC(=O)Nc1nc2cc(-c3cnc(NS(=O)(=O)N4CC[C@H](O)C4)nc3)cc(-c3ccc(C)cn3)c2s1 [Compound A-60, (S)—N-(5-(2-(3-ethylureido)-7-(5-methylpyridin-2-yl)benzo[d]thiazol-5-yl)pyrimidin-2-yl)-3-hydroxypyrrolidine-1-sulfonamide]
[5]
  MIC: 0.06 µg/mL (≈ 0.108 µM)
[6]
  MIC: ≤ 0.008 µg/mL
[7]
  MIC: 0.03 µg/mL (≈ 0.0541 µM)
[8]
  MIC: 0.12 µg/mL (≈ 0.216 µM)

## CCNC(=O)Nc1nc2cc(-c3cnc(NS(=O)(=O)C(C)(C)C)nc3)c(F)cc2s1 [Compound A-61, N-(5-(2-(3-ethylureido)-6-fluorobenzo[d]thiazol-5-yl)pyrimidin-2-yl)-2-methylpropane-2-sulfonamide]
[5]
  MIC: 0.06 µg/mL (≈ 0.133 µM)
[6]
  MIC: 0.25 µg/mL (≈ 0.552 µM)
[7]
  MIC: 0.12 µg/mL (≈ 0.265 µM)
[8]
  MIC: 0.06 µg/mL (≈ 0.133 µM)

## CCNC(=O)Nc1nc2cc(-c3ccn(C)c(=O)c3)cc(-c3ccccn3)c2s1 [Example 51 (WO2007/148093)]
[1]
  MIC: 4 µg/mL (≈ 9.86 µM)
[2]
  MIC of Compound (μg/ml) in the presence of PMBN (128 μg/ml): 0.06 µg/mL
[3]
  MIC: 16 µg/mL (≈ 39.5 µM)
[4]
  MIC of Compound (μg/ml) in the presence of PMBN (128 μg/ml): 0.5 µg/mL

## CCNC(=O)Nc1nc2cc(-c3cnc([C@@H](C)OP(=O)(O)O)nc3)cc(-c3ccccn3)c2s1 [Example 152 of WO2013/138860, [(1R)-1-[5-[2-(ethylcarbamoylamino)-7-(2-pyridyl)-1,3-benzothiazol-5-yl]pyrimidin-2-yl]ethyl] dihydrogen phosphate]
[9]; 100 mg/kg IV alone
  survival at the end of 5 days: No mice survived

## CC(C)C[C@@H]1NC(=O)[C@@H](Cc2ccccc2)NC(=O)[C@H](CCN)NC(=O)[C@@H](NC(=O)[C@H](CCN)NC(=O)[C@@H](N)[C@@H](C)O)CCNC(=O)[C@H]([C@@H](C)O)NC(=O)[C@H](CCN)NC(=O)[C@H](CCN)NC1=O [PMBN, Polymyxin B nonapeptide, reference compound] (H-T[Dab][Dab][Dab][dF]L[Dab][Dab]T; lactam 3-C (inferred); N-terminus assumed)
[2]; ATCC 25922
  MIC PMBN alone: >128^(a) μg/ml
[10]
  MIC PMBN alone: >32^(a) μg/ml
[11]; ATCC 13047
  MIC PMBN alone: >128^(a) μg/ml
[9]; PMBN 50 mg/kg SC alone
  survival at the end of 5 days: No mice survived
[12]
  MIC PMBN alone: >128^(a) μg/ml
[4]; ATCC 19606
  MIC PMBN alone: >128^(a) μg/ml

## N-(5-(2-(3-ethylureido)-7-(5-methylpyridin-2-yl)benzo[d]thiazol-5-yl)pyrimidin-2-yl)-N-methylmethanesulfonamide [Compound A-29]
[5]
  MIC vs. E. faecalis (ATCC 29212): 0.06 µg/mL
[6]
  MIC vs. N. gonorrheae (ATCC 49226): 0.25 µg/mL
[7]
  MIC vs. H. influenzae (ATCC 49247): 2 µg/mL
[8]
  MIC vs. S. aureus (ATCC 29213): 0.25 µg/mL

## N-(5-(2-(3-ethylureido)-7-(pyridin-2-yl)benzo[d]thiazol-5-yl)pyrimidin-2-yl)morpholine-4-sulfonamide [Compound A-43]
[5]
  MIC vs. E. faecalis (ATCC 29212): <=0.008 μg/ml
[6]
  MIC vs. N. gonorrheae (ATCC 49226): <=0.008 μg/ml
[7]
  MIC vs. H. influenzae (ATCC 49247): 0.03 µg/mL
[8]
  MIC vs. S. aureus (ATCC 29213): 0.12 µg/mL

## colistin [reference compound]
[2]; Table 2
  MIC colistin alone: 2 µg/mL
[2]; Table 12
  MIC Compound alone: 4 µg/mL
[2]; Table 12, (b) No significant effect
  MIC of Compound (μg/ml) in the presence of PMBN (32 μg/ml): 4^(b) μg/ml
[13]
  MIC (colistin): ^(a)Raised by selection with 2 or 4 μg/mL of colistin on MH agar: MIC (colistin) = 16-32 μg/mL
[11]; Table 7, (a) No measurable antibacterial activity
  MIC colistin alone: >64^(a) μg/ml
[14]
  MIC (colistin): ^(a)Raised by selection with 2 or 4 μg/mL of colistin on MH agar: MIC (colistin) = 16-32 μg/mL
[15]
  MIC (colistin): ^(a)Raised by selection with 2 or 4 μg/mL of colistin on MH agar: MIC (colistin) = 16-32 μg/mL
[16]
  MIC colistin alone: >64^(a) μg/ml
